Earlier results in US10172940B2 (priority 2009, dated 2019).

Tested on: canine visceral leishmaniasis (CVL)

Oc1ncnc2[nH]ncc12 [allopurinol]
parasitological cure and PCR result (20 months of treatment): without parasitological cure or negative results for PCR | clinical recovery / clinical improvement (dog, in vivo): 9/10 | dogs remaining positive for parasites (culture, PCR of lymph node, parasitological aspect) (dog, in vivo): 8 dogs

NC[C@@H]1O[C@H](O[C@H]2[C@@H](O)[C@H](O[C@@H]3[C@@H](O)[C@H](N)C[C@H](N)[C@H]3O[C@H]3O[C@H](CO)[C@@H](O)[C@H](O)[C@H]3N)O[C@@H]2CO)[C@H](N)[C@@H](O)[C@@H]1O [aminosidine]
dogs remaining positive for parasites (culture, PCR of lymph node, parasitological aspect) (dog, in vivo): 4/4 | dogs with absence of symptoms and parasites for 4 years (higher doses): 3/12 | dogs with relapse (higher doses): 9

Meglumine antimoniate
treated dogs from which parasites were recovered (15 dogs treated): 79% | dogs PCR positive after treatment (dog, in vivo): 5/6

N=C(N)c1ccc(OCCCCCOc2ccc(C(=N)N)cc2)cc1 [pentamidine]
clinical recovery / clinical improvement (dog, in vivo): improve clinically | recurrence of the disease (dog, in vivo): show recurrence of the disease
